Measurements reported in ChEMBL document CHEMBL1201862, “PubChem BioAssay data set” (2004).
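Five concentrations, 48 hours, 96-well plates. Abbreviation: GI50, concentration required for 50% inhibition of growth.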 Active and inactive are the calls of the source. Cut-off read from the data, not from the text of the source: active = GI50 up to about 1.1 µM and inactive = higher.

Tests used:
Experiment in all cases: NCI tumour cell line growth inhibition, 48 h
[1] = tested on: A549
[2] = tested on: ACHN
[3] = tested on: BT-549
[4] = tested on: CAKI-1
[5] = tested on: HCT-15
[6] = tested on: Hs-578T
[7] = tested on: K562
[8] = tested on: KM12
[9] = tested on: LOX IMVI
[10] = tested on: MDA-MB-435
[11] = tested on: NCI-H522
[12] = tested on: OVCAR-5
[13] = tested on: RXF 393
[14] = tested on: SF-268
[15] = tested on: SK-MEL-2
[16] = tested on: SK-OV-3
[17] = tested on: T47D
[18] = tested on: UACC-62
[19] = tested on: NCI-H226

| Compound | GI50 [1] | GI50 [2] | GI50 [3] | GI50 [4] | GI50 [5] | GI50 [6] | GI50 [7] | GI50 [8] | GI50 [9] | GI50 [10] | GI50 [11] | GI50 [12] | GI50 [13] | GI50 [14] | GI50 [15] | GI50 [16] | GI50 [17] | GI50 [18] | GI50 [19] |
| --- | --- | --- | --- | --- | --- | --- | --- | --- | --- | --- | --- | --- | --- | --- | --- | --- | --- | --- | --- |
| COc1nc(C#CCCCC#N)nc(OC)n1 | 15.8 µM (inactive) | 8.93 µM (inactive) | 15.9 µM (inactive) | 12.8 µM (inactive) | 3.29 µM | 40.8 µM (inactive) | 17.9 µM (inactive) | 16.9 µM (inactive) | 2.08 µM (inactive) | 10.4 µM (inactive) | 14.2 µM (inactive) | 13.5 µM (inactive) | 15.6 µM (inactive) | 27.3 µM (inactive) | 16 µM (inactive) | 90.6 µM (inactive) | 35.4 µM (inactive) | 9.62 µM (inactive) | – |
| COc1ccc(NC(=O)CSC(=O)c2ccccc2)c(SCCSSCCSc2cc(OC)ccc2NC(=O)CSC(=O)c2ccccc2)c1 | > 100 µM (inactive) | > 100 µM (inactive) | > 100 µM (inactive) | 18.2 µM (inactive) | > 100 µM | > 100 µM (inactive) | – | 8.07 µM (inactive) | 20.7 µM (inactive) | > 100 µM (inactive) | > 100 µM (inactive) | > 100 µM (inactive) | > 100 µM (inactive) | 67.5 µM (inactive) | 27.9 µM (inactive) | 41.5 µM (inactive) | 28.7 µM (inactive) | > 100 µM (inactive) | > 100 µM (inactive) |
| C1CNCCNCCN1 | > 100 µM (inactive) | > 100 µM (inactive) | > 100 µM (inactive) | > 100 µM (inactive) | > 100 µM | > 100 µM (inactive) | > 100 µM (inactive) | > 100 µM (inactive) | > 100 µM (inactive) | > 100 µM (inactive) | > 100 µM (inactive) | > 100 µM (inactive) | > 100 µM (inactive) | > 100 µM (inactive) | > 100 µM (inactive) | – | > 100 µM (inactive) | > 100 µM (inactive) | > 100 µM (inactive) |
| Cc1c(C(=O)OCc2ccccc2)[n+]([O-])c2ccccc2[n+]1[O-] | 22.2 µM (inactive) | 74.3 µM (inactive) | 57.9 µM (inactive) | 24.5 µM (inactive) | 40.9 µM | 30.1 µM (inactive) | 37.6 µM (inactive) | 28.1 µM (inactive) | 20 µM (inactive) | 26.4 µM (inactive) | – | 60.1 µM (inactive) | 23.7 µM (inactive) | 34.7 µM (inactive) | 32.8 µM (inactive) | 28 µM (inactive) | 13.4 µM (inactive) | 25.6 µM (inactive) | 14.5 µM (inactive) |
| O=C(CCc1ccc(O)c(O)c1)NCCc1ccc(O)c(O)c1 | > 100 µM (inactive) | > 100 µM (inactive) | > 100 µM (inactive) | – | > 100 µM | > 100 µM (inactive) | 31.7 µM (inactive) | > 100 µM (inactive) | 39.7 µM (inactive) | 17.9 µM (inactive) | > 100 µM (inactive) | > 100 µM (inactive) | > 100 µM (inactive) | > 100 µM (inactive) | 83.9 µM (inactive) | > 100 µM (inactive) | > 100 µM (inactive) | > 100 µM (inactive) | > 100 µM (inactive) |
| CCCCCCCCCCCCCC1=C(O)C(=O)C(CC2=C(O)C(=O)C(CCCCCCCCCCCCC)=C(O)C2=O)=C(O)C1=O | > 100 µM (inactive) | 30.8 µM (inactive) | > 100 µM (inactive) | > 100 µM (inactive) | – | 36 µM (inactive) | 66.1 µM (inactive) | > 100 µM (inactive) | > 100 µM (inactive) | > 10 µM (inactive) | > 100 µM (inactive) | > 100 µM (inactive) | 6.11 µM (inactive) | 46.3 µM (inactive) | > 100 µM (inactive) | 44.7 µM (inactive) | > 100 µM (inactive) | > 100 µM (inactive) | > 100 µM (inactive) |
| O=C1/C(=C/c2ccccc2)CCCC1CN1CCCCC1 (configuration not stated) | 17.5 µM (inactive) | 3.4 µM (inactive) | 2.95 µM (inactive) | 1.81 µM (inactive) | 2.04 µM | 2.94 µM (inactive) | – | 1.19 µM (inactive) | 1.65 µM (inactive) | 2 µM (inactive) | 0.242 µM (active) | 18.6 µM (inactive) | 1.83 µM (inactive) | 1.78 µM (inactive) | 4.56 µM (inactive) | 17.2 µM (inactive) | 1.77 µM (inactive) | 6.53 µM (inactive) | 3.45 µM (inactive) |
| Nn1c(Nc2ccc(S(=O)(=O)Nc3ncccn3)cc2)nnc(/C=C/c2c(O)ccc3ccccc23)c1=O | 46 µM (inactive) | 25.8 µM (inactive) | 22.3 µM (inactive) | 26.7 µM (inactive) | 27.3 µM | 48.4 µM (inactive) | 29 µM (inactive) | – | 30.3 µM (inactive) | 25.2 µM (inactive) | 34.3 µM (inactive) | 32.7 µM (inactive) | 26.2 µM (inactive) | 31.6 µM (inactive) | 18.5 µM (inactive) | – | 23.8 µM (inactive) | 20.5 µM (inactive) | – |
